Experimental data from ChEMBL document CHEMBL3580609, “Novel phthalimide derivatives with TNF- and IL-1 expression inhibitory and apoptotic inducing properties” (Medchemcomm, 2014).
Active and inactive are the calls of the source. No cut-off for these calls is given here.

Experiments:
Jurkat [1] = experiment: Inhibition of TNFalpha expression in human Jurkat cells containing GFP gene under control of TNF gene promoter at 100 uM incubated for 24 hrs; assay type: functional
Jurkat [2] = experiment: Inhibition of TNFalpha expression in human Jurkat cells containing GFP gene under control of TNF gene promoter at 10 uM incubated for 24 hrs; assay type: functional
[3] = tested on: Peritoneal macrophage cell; experiment: Inhibition of TNFalpha production in LPS-induced mouse peritoneal macrophages at 50 uM incubated for 24 hrs by sandwich ELISA method; assay type: functional, cell-based
[4] = tested on: Peritoneal macrophage cell; experiment: Inhibition of IL-1beta production in LPS-induced mouse peritoneal macrophages at 50 uM incubated for 24 hrs by sandwich ELISA method; assay type: functional, cell-based
Mus musculus [5] = organism: Mus musculus; experiment: Reduction in serum cholesterol levels in Swiss white mouse after 16 days; assay type: functional
Mus musculus [6] = organism: Mus musculus; experiment: Reduction in serum triglyceride levels in Swiss white mouse after 14 days; assay type: functional
Jurkat [7] = experiment: Inhibition of TNFalpha expression in human Jurkat cells containing GFP gene under control of TNF gene promoter incubated for 24 hrs; assay type: functional, cell-based
Jurkat [8] = experiment: Induction of total cell death in human Jurkat cells containing GFP gene under control of TNF gene promoter at 10 uM incubated for 24 hrs by propidium iodide staining based assay
Jurkat [9] = experiment: Induction of total cell death in human Jurkat cells containing GFP gene under control of TNF gene promoter at 100 uM incubated for 24 hrs by propidium iodide staining based assay
Jurkat [10] = experiment: Inhibition of TNFalpha expression in human Jurkat cells containing GFP gene under control of TNF gene promoter at 100 uM incubated for 24 hrs relative to thalidomide; assay type: functional
Jurkat [11] = experiment: Induction of apoptosis in human Jurkat cells at 100 uM incubated for 24 hrs by FITC-labeled capsase-3 substrate based Nucview-488 caspase-3 assay; assay type: functional, cell-based
Jurkat [12] = experiment: Induction of apoptosis in human Jurkat cells at 10 uM incubated for 24 hrs by FITC-labeled capsase-3 substrate based Nucview-488 caspase-3 assay; assay type: functional, cell-based
Jurkat [13] = experiment: Inhibition of TNFalpha expression in human Jurkat cells containing GFP gene under control of TNF gene promoter at 10 uM incubated for 24 hrs relative to thalidomide; assay type: functional

Q: What does the source list for `C[C@@H](C(=O)N/N=C\c1ccc(Cl)cc1)N1C(=O)c2ccccc2C1=O`?
A: inhibition (Jurkat [1]): Active; inhibition (Jurkat [2]): Active

Q: Which inhibition [3] does the source give for `CC[C@H](C)[C@@H](C(=O)N/N=C\c1ccc(OC)cc1)N1C(=O)c2ccccc2C1=O` here?
A: Active

Q: And the inhibition [4]?
A: Active

Q: Which inhibition [3] does the source give for `COc1ccc(/C=N\NC(=O)[C@H](Cc2ccccc2)N2C(=O)c3ccccc3C2=O)cc1` here?
A: Active

Q: And the inhibition [4]?
A: Active

Q: `CC(=O)c1ccccc1N1C(=O)c2ccccc2C1=O` was tested. Which “inhibition (INH)” value (Mus musculus [5]) did it give?
A: 57%

Q: And the “inhibition (INH)” value (Mus musculus [6])?
A: 44%

Q: For `CC[C@H](C)[C@@H](C(=O)N/N=C\c1ccc(Cl)c(Cl)c1)N1C(=O)c2ccccc2C1=O`, which inhibition (Jurkat [7]) is on record?
A: Dose-dependent effect

Q: And the inhibition [3]?
A: Active

Q: What about the inhibition [4] of the same compound?
A: Active

Q: What about the inhibition at 100 µM (Jurkat [1]) of the same compound?
A: 17%

Q: What about the Activity (Jurkat [8]) of the same compound?
A: Non-toxic

Q: And the inhibition (Jurkat [2])?
A: inactive

Q: What about the Activity (Jurkat [9]) of the same compound?
A: Toxic

Q: And the “fold change (FC)” value (Jurkat [10])?
A: 3

Q: What does the source list for `O=C(N/N=C\c1ccc(Cl)cc1)[C@H](Cc1ccccc1)N1C(=O)c2ccccc2C1=O`?
A: inhibition (Jurkat [1]): Active; inhibition (Jurkat [2]): Active

Q: With `CCOC(=O)[C@H](C)N1C(=O)c2ccccc2C1=O` as the compound, how does the inhibition [3] read?
A: Active

Q: What about the inhibition [4] of the same compound?
A: Active

Q: What does the source list for `O=C(N/N=C\c1ccc(Cl)c(Cl)c1)[C@H](Cc1ccccc1)N1C(=O)c2ccccc2C1=O`?
A: inhibition (Jurkat [1]): Active; inhibition (Jurkat [2]): Active; Activity (Jurkat [9]): Toxic

Q: For `C[C@@H](C(=O)N/N=C\c1ccc(Cl)c(Cl)c1)N1C(=O)c2ccccc2C1=O`, which inhibition (Jurkat [1]) is on record?
A: Active

Q: What about the inhibition (Jurkat [2]) of the same compound?
A: Active

Q: For `CC[C@H](C)[C@@H](C(=O)N/N=C\c1ccc(Cl)cc1)N1C(=O)c2ccccc2C1=O`, which inhibition [3] is on record?
A: Active

Q: What about the inhibition [4] of the same compound?
A: Active

Q: And the inhibition (Jurkat [1])?
A: Active

Q: And the inhibition at 10 µM (Jurkat [2])?
A: 13%

Q: What about the Activity (Jurkat [9]) of the same compound?
A: Toxic

Q: What about the Activity (Jurkat [11]) of the same compound?
A: Active

Q: What about the Activity (Jurkat [12]) of the same compound?
A: Active

Q: How did the inhibition [3] turn out when `C[C@@H](C(=O)N/N=C\c1ccccc1)N1C(=O)c2ccccc2C1=O` was run?
A: Active

Q: And the inhibition [4]?
A: Active

Q: And the inhibition at 100 µM (Jurkat [1])?
A: 9.8%

Q: What about the Activity (Jurkat [8]) of the same compound?
A: Non-toxic

Q: And the inhibition at 10 µM (Jurkat [2])?
A: 9.8%

Q: And the Activity (Jurkat [11])?
A: inactive

Q: And the Activity (Jurkat [12])?
A: inactive

Q: For `CCOC(=O)[C@H](Cc1ccccc1)N1C(=O)c2ccccc2C1=O`, which inhibition [3] is on record?
A: Active

Q: What about the inhibition [4] of the same compound?
A: Active

Q: Which results are given for `O=C1CCC(N2C(=O)c3ccccc3C2=O)C(=O)N1` (configuration not stated) [THALIDOMIDE]?
A: inhibition [3]: Active; inhibition [4]: Active; inhibition at 100 µM (Jurkat [1]): 5%; Activity (Jurkat [8]): 2%; inhibition at 10 µM (Jurkat [2]): 5%; Activity (Jurkat [9]): 2%

Q: How did the inhibition [3] turn out when `CCOC(=O)[C@H]([C@@H](C)CC)N1C(=O)c2ccccc2C1=O` was run?
A: Active

Q: And the inhibition [4]?
A: Active

Q: How did the inhibition at 100 µM (Jurkat [1]) turn out when `Nc1cccc2c1CN(C1CCC(=O)NC1=O)C2=O` (configuration not stated) [LENALIDOMIDE] was run?
A: 14%

Q: What about the Activity (Jurkat [8]) of the same compound?
A: Non-toxic

Q: What about the inhibition at 10 µM (Jurkat [2]) of the same compound?
A: 14%

Q: What about the Activity (Jurkat [9]) of the same compound?
A: Non-toxic

Q: And the Activity (Jurkat [11])?
A: Active

Q: And the “fold change (FC)” value (Jurkat [13])?
A: 2

Q: What about the “fold change (FC)” value (Jurkat [10]) of the same compound?
A: 2

Q: And the Activity (Jurkat [12])?
A: Active

Q: For `O=C(N/N=C\c1ccccc1)[C@H](Cc1ccccc1)N1C(=O)c2ccccc2C1=O`, which inhibition (Jurkat [7]) is on record?
A: Dose-dependent effect

Q: And the inhibition [3]?
A: Active

Q: And the inhibition [4]?
A: Active

Q: What about the inhibition at 100 µM (Jurkat [1]) of the same compound?
A: 17%

Q: What about the inhibition (Jurkat [2]) of the same compound?
A: inactive

Q: And the Activity (Jurkat [9])?
A: Toxic

Q: And the “fold change (FC)” value (Jurkat [10])?
A: 3

Q: Which inhibition [3] does the source give for `NNC(=O)[C@H](Cc1ccccc1)N1C(=O)c2ccccc2C1=O` here?
A: Active

Q: What about the inhibition [4] of the same compound?
A: Active

Q: With `COc1ccc(/C=N\NC(=O)[C@H](C)N2C(=O)c3ccccc3C2=O)cc1` as the compound, how does the inhibition [3] read?
A: Active

Q: What about the inhibition [4] of the same compound?
A: Active

Q: For `C[C@@H](C(=O)O)N1C(=O)c2ccccc2C1=O`, which inhibition [3] is on record?
A: Active

Q: And the inhibition [4]?
A: Active

Q: What does the source list for `C[C@@H](C(=O)NN)N1C(=O)c2ccccc2C1=O`?
A: inhibition [3]: Active; inhibition [4]: Active

Q: What does the source list for `CC[C@H](C)[C@@H](C(=O)N/N=C\c1ccccc1)N1C(=O)c2ccccc2C1=O`?
A: inhibition [3]: Active; inhibition [4]: Active; inhibition (Jurkat [1]): Active; Activity (Jurkat [8]): Non-toxic; inhibition (Jurkat [2]): Active
